In patent publication US12649748B2, “Wee1 inhibitor and use thereof” (JIANGSU TASLY DIYI PHARMACEUTICAL CO., LTD., priority 2021, dated 2026):
pIC50: −log10 of the molar value. Where two headings read alike, the source gives them in different places.

What was measured:
Wee1 protein = biological target: T1, Wee1 protein (Homo sapiens, UniProt P30291); test: Binding of compound to Wee1 protein and Tracer 178 by TR-FRET; conditions: inhibitory activity against Wee1 kinase, read-out: IC50 measured value
T1 construct: purchased Thermo Fisher PR7373A
T1 sequence (P30291 whole entry): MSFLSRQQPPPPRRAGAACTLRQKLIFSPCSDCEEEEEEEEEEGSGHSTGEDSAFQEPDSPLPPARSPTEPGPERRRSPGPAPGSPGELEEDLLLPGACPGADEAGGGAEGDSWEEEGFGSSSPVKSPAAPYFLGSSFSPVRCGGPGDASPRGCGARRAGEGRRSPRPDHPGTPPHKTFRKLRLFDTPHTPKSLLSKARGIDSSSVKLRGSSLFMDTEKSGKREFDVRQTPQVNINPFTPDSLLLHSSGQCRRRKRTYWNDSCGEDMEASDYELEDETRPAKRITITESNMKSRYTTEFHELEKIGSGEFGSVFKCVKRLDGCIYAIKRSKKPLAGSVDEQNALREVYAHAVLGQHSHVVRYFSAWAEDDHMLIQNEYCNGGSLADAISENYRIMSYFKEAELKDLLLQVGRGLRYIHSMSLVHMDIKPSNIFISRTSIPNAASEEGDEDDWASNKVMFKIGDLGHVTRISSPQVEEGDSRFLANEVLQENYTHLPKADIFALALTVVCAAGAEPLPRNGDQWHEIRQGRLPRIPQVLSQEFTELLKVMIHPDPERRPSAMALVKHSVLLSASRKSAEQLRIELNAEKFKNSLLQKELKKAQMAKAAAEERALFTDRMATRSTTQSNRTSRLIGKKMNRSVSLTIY
Procedure: First, solutions of the compounds in different concentration gradients were prepared. […] DMSO was added as a positive control (maximal signal control) and a negative control (minimal signal control) and a final level of 0.25% DMSO was ensured in each reaction well.
WEE1 (Thermo Fisher, Cat #PR7373A) protein in buffer (50 mM Hepes pH 7.5, 10 mM MgCl2, 1 mM EGTA, 0.01% Brij-35) at 15 nM) in different concentrations of compound, and Tracer 178 (Invitrogen, PV5593) and MAb Anti-GST-Eu crypate (Cisbio, 61GSTKLA) were added to 384-well plates (Corning, cat #3574), centrifuged at 1000 rpm for 1 min and the 384-well plates were incubated in a constant temperature shaker for 60 min at 25° C. and 300 rpm. Tracer 178 and MAb Anti-GST-Eu crypate were prepared in buffer (50 mM HEPES pH 7.5, 10 mM MgCl2, 1 mM EGTA, 0.01% Brij-35) with a final reaction concentration of 50 nM for Tracer 178 and a final concentration of 2 nM for MAb Anti-GST-Eu crypate, where the negative control (minimal signal control) used an equal amount of buffer in place of the protein solution.
After incubation, readings were performed using BMG PHERAStar (excitation light at 337 nm and emission light at wavelength values of 620 nm and 665 nm to read the fluorescence signal values). […] The IC50 for inhibition of enzyme activity by the compounds was then calculated using GraphPad Prism 6 and fitted with a log (inhibitor) vs. response-Variable slope mode. The fitting equation was: Y=Bottom+(Top-Bottom)/(1+10^((Log IC50−X)*HillSlope)), where Y represents the percentage of residual enzyme activity known and X represents the known concentration of compound after the logarithm.

H1299 cells = test: Anti-proliferative effect by Cell Titer-Glo, H1299; format: cell-based; conditions: Homo sapiens, NCI-H1299, 72 h, read-out: IC50 measured value H1299
Procedure: (§1) Compound solutions of different concentration gradients were prepared. DMSO was dissolved to a concentration of 10 mM test compound and 10 mM reference compound AZD1775, and the compounds were serially diluted in culture medium for a total of 9 dose points, with 2 parallel replicates set at each concentration. The cell growth group without compound was used as a positive control (maximum signal control) and the medium was used as a negative control (minimum signal control), while ensuring that the final level of DMSO in each reaction well was 0.2%. After removing the medium from the 384-well plate, 25 ul of the configured compound at different concentrations was transferred into the well plate and the compound and cells were incubated in the cell incubator at 37° C. with 5% CO2 for 3 days.
(§2) The 384-well plates were removed from the cell incubator and allowed to equilibrate for 1 h to room temperature. 25 ul of Cell Titer-Glo assay was added to each well, lysed on a shaker for 2 min and then read out (Luminescence) using a BMG PHERAStar after 10 min incubation. Calculate the inhibition rate from the luminescence signal: first calculate the average of the positive control (maximum signal control) and the negative control (minimum signal control).
(§3) [formula] to calculate the rate of inhibition of the cells by different concentrations of the compounds. The IC50 of the compound on cell activity inhibition was calculated by fitting a log(inhibitor) vs. response-Variable slope model to GraphPad Prism 6. The fitted equation was: Y=Bottom+(Top−Bottom)/(1+10^((Log IC50−X)*HillSlope)), where Y represents the rate of inhibition and X represents the concentration of the known compound after Log.

MIA Paca-2 cells = test: Anti-proliferative effect by Cell Titer-Glo, MIA Paca-2; format: cell-based; conditions: Homo sapiens, read-out: IC50 measured value MIA Paca-2
Procedure: as §1, §2, §3

[1] = H1299 cells, 3 days, Cell Titer-Glo
[2] = 72 h, MIA Paca-2 cells, 3 days, Cell Titer-Glo

| SMILES | pIC50 (Wee1 protein) | pIC50 (H1299 cells; [1]) | pIC50 (MIA Paca-2 cells; [2]) | pIC50 (H1299 cells) | pIC50 (MIA Paca-2 cells; MIA PaCa-2, 72 h) |
| --- | --- | --- | --- | --- | --- |
| CN1CCN(c2ccc(Nc3ncc4cnn(-c5cccc(C6(S(C)(=O)=O)CC6)n5)c4n3)cc2)CC1 [Compound 5] | 7.00 to 8.00 | – | – | 5.30 to 6.00 | – |
| CS(C)(=O)=Nc1cccc(-n2ncc3cnc(Nc4ccc5c(c4)CNCC5)nc32)n1 [Compound 7] | 8.00 to 9.00 | 5.30 to 6.00 | – | – | – |
| CN1CCc2ccc(Nc3ncc4cnn(-c5cccc(N=S(C)(C)=O)n5)c4n3)cc2C1 [Compound 8] | 8.00 to 9.00 | 5.30 to 6.00 | – | – | – |
| CN(C)C1CCN(c2ccc(Nc3ncc4cnn(-c5cccc(N=S(C)(C)=O)n5)c4n3)cc2)CC1 [Compound 9] | 8.00 to 9.00 | – | – | 5.30 to 6.00 | – |
| CN1CC2CC1CN2c1ccc(Nc2ncc3cnn(-c4cccc(N=S(C)(C)=O)n4)c3n2)cc1 (centres unmarked) [Compound 13] | 8.00 to 9.00 | 4.70 to 5.30 | – | – | – |
| CS(C)(=O)=Nc1cccc(-n2ncc3cnc(Nc4ccc(CC5C(=O)C6CCN5CC6)cc4)nc32)n1 (centres unmarked) [Compound 15] | 7.00 to 8.00 | 5.30 to 6.00 | 6.00 to 7.00 | – | – |
| CN1CCN(c2c(Cl)cc(Nc3ncc4cnn(-c5cccc(N=S(C)(C)=O)n5)c4n3)cc2Cl)CC1 [Compound 17] | 7.00 to 8.00 | 4.70 to 5.30 | 6.00 to 7.00 | – | – |
| CN1CCN(c2ccc(Nc3ncc4cnn(-c5cccc(N=S(C)(C)=O)n5)c4n3)cc2F)CC1 [Compound 19] | 7.00 to 8.00 | 5.30 to 6.00 | 6.00 to 7.00 | – | – |
| CN1CCN(C2CCN(c3ccc(Nc4ncc5cnn(-c6cccc(N=S(C)(C)=O)n6)c5n4)cc3)CC2)CC1 [Compound 20] | 8.00 to 9.00 | 5.30 to 6.00 | 6.00 to 7.00 | – | – |
| Cc1cc(Nc2ncc3cnn(-c4cccc(C(C)(C)O)n4)c3n2)ccc1N1CCN(C)CC1 [Compound 21] | 7.00 to 8.00 | 5.30 to 6.00 | 6.00 to 7.00 | – | – |
| COc1cc(N2CCN(C)CC2)ccc1Nc1ncc2cnn(-c3cccc(N=S(C)(C)=O)n3)c2n1 [Compound 22] | 6.00 to 7.00 | 4.70 to 5.30 | 4.70 to 5.30 | – | – |
| CN1CCN(c2ccc(Nc3ncc4cnn(-c5cccc(N=S(C)(C)=O)n5)c4n3)cc2CO)CC1 [Compound 23] | 8.00 to 9.00 | 6.00 to 7.00 | 6.00 to 7.00 | – | – |
| CN1CCN(c2ccc(Nc3ncc4c(C(F)(F)F)nn(-c5cccc(N=S(C)(C)=O)n5)c4n3)cc2)CC1 [Compound 24] | 7.00 to 8.00 | – | – | 5.30 to 6.00 | 5.30 to 6.00 |
| CN1CCC2(CC1)CCN(c1ccc(Nc3ncc4cnn(-c5cccc(N=S(C)(C)=O)n5)c4n3)cc1)CC2 [Compound 25] | 8.00 to 9.00 | 6.00 to 7.00 | 6.00 to 7.00 | – | – |
| COc1cc(Nc2ncc3cnn(-c4cccc(N=S(C)(C)=O)n4)c3n2)ccc1N1CCN(C)CC1 [Compound 26] | 8.00 to 9.00 | 5.30 to 6.00 | 6.00 to 7.00 | – | – |
| CN1CCN(c2ccc(Nc3ncc4c(=O)n(C)n(-c5cccc(N=S(C)(C)=O)n5)c4n3)cc2)CC1 [Compound 27A] | 8.00 to 9.00 | 6.00 to 7.00 | 6.00 to 7.00 | – | – |
| CN1CCN(c2ccc(Nc3ncc4cnn(-c5cccc(N=S(C)(C)=O)c5)c4n3)cc2)CC1 [Compound 30] | 7.00 to 8.00 | – | – | 5.30 to 6.00 | 6.00 to 7.00 |
| CN1CCN(c2ccc(Nc3ncc4cnn(-c5cncc(N=S(C)(C)=O)c5)c4n3)cc2)CC1 [Compound 31] | 7.00 to 8.00 | 5.30 to 6.00 | 6.00 to 7.00 | – | – |
| CN1CCN(c2ccc(Nc3ncc4cnn(-c5ccc6c(c5)C(=O)NCC6)c4n3)cc2)CC1 [Compound 38] | 7.00 to 8.00 | 6.00 to 7.00 | 6.00 to 7.00 | – | – |
| CN1CCN(c2ccc(Nc3ncc4cnn(-c5ccc6c(c5)c(N)nn6C)c4n3)cc2)CC1 [Compound 49] | 6.00 to 7.00 | – | – | 5.30 to 6.00 | 5.30 to 6.00 |
| CN1CCN(c2ccc(Nc3ncc4cnn(-c5cccc(-n6ccccc6=O)n5)c4n3)cc2)CC1 [Compound 54] | 7.00 to 8.00 | 4.70 to 5.30 | 5.30 to 6.00 | – | – |
| CN1CCN(c2ccc(Nc3ncc4cnn(-c5cccc(N=S(C)(C)=O)c5)c4n3)nc2)CC1 [Compound 56] | 6.00 to 7.00 | 4.70 to 5.30 | 4.70 to 5.30 | – | – |

Continued, in another order:

| pIC50 (Wee1 protein) | pIC50 (H1299 cells; [1]) | pIC50 (MIA Paca-2 cells; [2]) | SMILES | pIC50 (H1299 cells) | pIC50 (MIA Paca-2 cells; MIA PaCa-2, 72 h) |
| --- | --- | --- | --- | --- | --- |
| 7.00 to 8.00 | 5.30 to 6.00 | – | CN1CCN(c2ccc(Nc3ncc4cnn(-c5cccc(C(C)(O)C(F)(F)F)n5)c4n3)cc2)CC1 (centres unmarked) [Compound 4] | – | – |
| 7.00 to 8.00 | 6.00 to 7.00 | – | CN1CCN(c2ccc(Nc3ncc4cnn(-c5cccc(C(C)(C)O)c5)c4n3)cc2)CC1 [Compound 12] | – | – |
| 7.00 to 8.00 | 5.30 to 6.00 | 6.00 to 7.00 | COc1nn(-c2cccc(N=S(C)(C)=O)n2)c2nc(Nc3ccc(N4CCN(C)CC4)cc3)ncc12 [Compound 27B] | – | – |
| 6.00 to 7.00 | 6.00 to 7.00 | 6.00 to 7.00 | CN1CCN(c2ccc(Nc3ncc4cnn(-c5ccnc(C(C)(C)O)c5)c4n3)cc2)CC1 [Compound 29] | – | – |
| 6.00 to 7.00 | 6.00 to 7.00 | 6.00 to 7.00 | CN1CCN(c2ccc(Nc3ncc4cnn(-c5cncc(C(C)(C)O)c5)c4n3)cc2)CC1 [Compound 32] | – | – |
| 6.00 to 7.00 | 5.30 to 6.00 | 5.30 to 6.00 | CN1CCN(c2ccc(Nc3ncc4cnn(-c5cccc(N=S(C)(C)=O)c5F)c4n3)cc2)CC1 [Compound 33] | – | – |
| 6.00 to 7.00 | 6.00 to 7.00 | 6.00 to 7.00 | CN1CCN(c2ccc(Nc3ncc4cnn(-c5cc(C(C)(C)O)ccn5)c4n3)cc2)CC1 [Compound 34] | – | – |
| 6.00 to 7.00 | 4.70 to 5.30 | 4.70 to 5.30 | CN1CCN(c2ccc(Nc3ncc4c(C(F)(F)F)nn(-c5cccc(C(C)(C)O)c5)c4n3)cc2)CC1 [Compound 35] | – | – |
| 7.00 to 8.00 | 5.30 to 6.00 | 5.30 to 6.00 | CN1CCN(c2ccc(Nc3ncc4cnn(-c5ccc6ccncc6c5)c4n3)cc2)CC1 [Compound 36] | – | – |
| 7.00 to 8.00 | 6.00 to 7.00 | 6.00 to 7.00 | CN1CCN(c2ccc(Nc3ncc4cnn(-c5ccc6scnc6c5)c4n3)cc2)CC1 [Compound 37] | – | – |
| 7.00 to 8.00 | 5.30 to 6.00 | 6.00 to 7.00 | CN1CCN(c2ccc(Nc3ncc4cnn(-c5ccc6c(c5)C(O)CO6)c4n3)cc2)CC1 (centres unmarked) [Compound 39] | – | – |
| 7.00 to 8.00 | 5.30 to 6.00 | 5.30 to 6.00 | CN1CCN(c2ccc(Nc3ncc4cnn(-c5ccc6cc[nH]c6c5)c4n3)cc2)CC1 [Compound 41] | – | – |
| 7.00 to 8.00 | 6.00 to 7.00 | 6.00 to 7.00 | CN1CCN(c2ccc(Nc3ncc4cnn(-c5ccc(F)c(C(C)(C)O)c5)c4n3)cc2)CC1 [Compound 42] | – | – |
| 6.00 to 7.00 | 6.00 to 7.00 | 6.00 to 7.00 | CN1CCN(c2ccc(Nc3ncc4cnn(-c5cccc6c5CCC6(C)O)c4n3)cc2)CC1 (centres unmarked) [Compound 44] | – | – |
| 7.00 to 8.00 | 5.30 to 6.00 | 6.00 to 7.00 | CN1CCN(c2ccc(Nc3ncc4cnn(-c5ccc6c(c5)C(=O)NC6)c4n3)cc2)CC1 [Compound 46] | – | – |
| 6.00 to 7.00 | 6.00 to 7.00 | 6.00 to 7.00 | CN1CCN(c2ccc(Nc3ncc4cnn(-c5cccc(C(C)(C)O)c5)c4n3)cn2)CC1 [Compound 47] | – | – |
| 7.00 to 8.00 | 5.30 to 6.00 | 5.30 to 6.00 | CN1CCN(c2ccc(Nc3ncc4cnn(-c5cccc(-n6ccccc6=O)c5)c4n3)cc2)CC1 [Compound 48] | – | – |
| 7.00 to 8.00 | 6.00 to 7.00 | 6.00 to 7.00 | Cc1nc2cccc(-n3ncc4cnc(Nc5ccc(N6CCN(C)CC6)cc5)nc43)c2o1 [Compound 51] | – | – |
| 6.00 to 7.00 | 6.00 to 7.00 | 6.00 to 7.00 | CN1CCN(c2ccc(Nc3ncc4cnn(-c5cc(C(C)(C)O)ccc5F)c4n3)cc2)CC1 [Compound 52] | – | – |
| 7.00 to 8.00 | 5.30 to 6.00 | 5.30 to 6.00 | CN1CCN(c2ccc(Nc3ncc4cnn(-c5ccc6ncc(C(C)(C)O)n6c5)c4n3)cc2)CC1 [Compound 55] | – | – |
